The record followed here is ChEMBL document CHEMBL1128930, “4-cyanothiazolidides as very potent, stable inhibitors of dipeptidyl peptidase IV” (Bioorg Med Chem Lett, 1996).

Data set [1] is described as follows: Half life period in aqueous solution. In kind it is ADME. Conditions: for half-life: aqueous solution.
The target in the next data set is Dipeptidyl peptidase 4 (Homo sapiens, UniProt P27487). Put plainly: Inhibition of human Dipeptidyl peptidase IV.

Each structure is given as a SMILES string. Where only a bound is given, the exact number is not on record here.

Dipeptidyl peptidase 4, sequence (P27487 whole entry): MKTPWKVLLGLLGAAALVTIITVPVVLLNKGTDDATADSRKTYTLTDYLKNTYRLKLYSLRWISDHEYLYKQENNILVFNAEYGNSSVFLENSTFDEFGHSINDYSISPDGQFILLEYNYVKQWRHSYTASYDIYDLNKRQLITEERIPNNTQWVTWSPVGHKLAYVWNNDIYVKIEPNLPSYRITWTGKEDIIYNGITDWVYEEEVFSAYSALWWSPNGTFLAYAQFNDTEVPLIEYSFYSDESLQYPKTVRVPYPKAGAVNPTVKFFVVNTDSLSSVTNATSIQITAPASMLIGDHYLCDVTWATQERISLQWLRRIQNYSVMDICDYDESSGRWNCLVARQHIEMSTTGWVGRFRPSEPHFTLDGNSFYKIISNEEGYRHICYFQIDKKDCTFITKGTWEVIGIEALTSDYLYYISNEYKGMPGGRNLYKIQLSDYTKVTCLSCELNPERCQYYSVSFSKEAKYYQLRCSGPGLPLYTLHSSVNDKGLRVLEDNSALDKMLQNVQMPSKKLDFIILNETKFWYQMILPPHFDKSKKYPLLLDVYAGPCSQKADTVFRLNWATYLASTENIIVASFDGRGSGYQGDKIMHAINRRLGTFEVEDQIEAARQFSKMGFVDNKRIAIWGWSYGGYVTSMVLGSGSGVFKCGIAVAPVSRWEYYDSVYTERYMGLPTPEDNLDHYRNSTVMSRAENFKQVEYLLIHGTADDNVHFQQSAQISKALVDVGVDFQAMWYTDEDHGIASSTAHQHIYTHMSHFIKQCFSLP

The half-life is the time in which the quantity being followed falls by half. A high value points to slow loss. Usually Ki stands for a dissociation constant, usually derived from enzyme kinetics or from competition with a known ligand. Low values mean tighter binding, high ones weaker binding. For the compound `CCC(C)[C@H](N)C(=O)N1CSCCC1C#N` (stereo partly drawn), the half-life in data set [1] was more than 48 h. On Dipeptidyl peptidase 4, this compound returned a Ki of 6000 nM.

Compound `CCC(C)[C@H](N)C(=O)N1COC[C@H]1C#N` (stereo partly drawn) displayed a half-life in data set [1] of more than 48 h. For the same compound, at Dipeptidyl peptidase 4, the affinity, expressed as Ki, was 450 nM.

Take `CCC(C)[C@H](N)C(=O)N1CCC[C@H]1C#N` (stereo partly drawn): the half-life in data set [1] is 48 h.

The compound `N#C[C@@H]1CSCN1C(=O)C(CCCCN)NC(=O)OCc1ccccc1` (stereo partly drawn) showed a half-life in data set [1] of more than 48 h. The same compound displayed a Ki at Dipeptidyl peptidase 4 of 5 nM.

In turn, `N#C[C@@H]1CSCN1C(=O)C(N)C1CCCC1` (stereo partly drawn) gave a half-life in data set [1] of 5 h. At Dipeptidyl peptidase 4, affinity was put at a Ki of 0.5 nM.

On to `CC[C@H](C)[C@H](N)C(=O)N1C[S+]([O-])C[C@H]1C#N` (stereo in doubt; 7), for which the half-life in data set [1] was 1.25 h. Affinity on Dipeptidyl peptidase 4 was put at a Ki of 34 nM.

For `CC[C@H](C)[C@H](N)C(=O)N1C[S+]([O-])C[C@H]1C#N` (stereo in doubt; 9), the T1/2 in data set [1] (buffer) stood at 1.5 h. On Dipeptidyl peptidase 4, this compound came in with an inhibitory constant (Ki) of 440 nM.
